This test has as its system Botrytis cinerea (B05.10). Nature of the test: Resazurin antifungal assay of 180 alpha-factor peptide variants towards Botrytis (Example 2). It is filed as cell-based. Conditions: % inhibition of fungal growth, Botrytis conidia, resazurin; for Inhibition at 50 μM: peptide 50 μM; for Inhibition at 100 μM: peptide 100 μM. In outline:
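Resazurin viability read-out (570/620 nm fluorescence) after a 24 h, 20° C incubation of B05.10 conidia, 5000 per well, with peptide at final 10-100 μM. Growth inhibition (%) was derived by subtracting conidia-only fluorescence; four replicates per treatment.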
Background: The colour change of resazurin is a common sign of viable cells or microbes.

Molecules are shown by their SMILES. Peptide text beside a SMILES is read from it.

As usually defined, the Inhibition is the drop in the measured response relative to a control, in per cent.

On to `CC[C@H](C)[C@H](NC(=O)[C@H](CCC(=O)O)NC(=O)CNC(=O)[C@H](Cc1c[nH]c2ccccc12)NC(=O)[C@H](Cc1c[nH]cn1)NC(=O)[C@@H]1CCCN1)C(=O)N[C@@H](CCCCN)C(=O)N1CCC[C@H]1C(=O)NCC(=O)N[C@@H](CCC(N)=O)C(=O)N[C@@H](CO)C(=O)N[C@@H](CCSC)C(=O)N[C@@H](Cc1ccc(O)cc1)C(=O)O` [compound 139] (H-PHWGEIKPGQSMY-OH; N-terminus and C-terminus assumed), for which the “Inhibition at 50 μM” value is given as under 90% and the “Inhibition at 100 μM” value is under 90%.

As to `CC[C@H](C)[C@H](NC(=O)[C@H](Cc1ccccc1)NC(=O)[C@H](CS)NC(=O)[C@@H](N)CCCCN)C(=O)N[C@@H](CCC(N)=O)C(=O)N[C@@H](CC(C)C)C(=O)N[C@@H](CCCCN)C(=O)N1CCC[C@H]1C(=O)NCC(=O)N[C@@H](CCC(N)=O)C(=O)N1CCC[C@H]1C(=O)N[C@@H](CCSC)C(=O)N[C@@H](Cc1ccc(O)cc1)C(=O)O` [compound 140] (H-KCFIQLKPGQPMY-OH; N-terminus and C-terminus assumed), the “Inhibition at 50 μM” value was under 90% and the “Inhibition at 100 μM” value was found to be 90.65%.

Regarding `CSCC[C@H](NC(=O)[C@@H]1CCCN1C(=O)[C@H](CCC(N)=O)NC(=O)CNC(=O)[C@H](CCCNC(=N)N)NC(=O)[C@H](CCCCN)NC(=O)[C@H](CC(C)C)NC(=O)[C@@H](NC(=O)[C@H](CC(C)C)NC(=O)[C@H](CC(=O)O)NC(=O)[C@H](CCCNC(=N)N)NC(=O)[C@@H]1CCCN1)[C@@H](C)O)C(=O)N[C@@H](Cc1ccc(O)cc1)C(=O)O` [compound 141] (H-PRDLTLKRGQPMY-OH; N-terminus and C-terminus assumed), the “Inhibition at 50 μM” value is given as under 90% and the “Inhibition at 100 μM” value is recorded as under 90%.

Regarding `CC[C@H](C)[C@H](NC(=O)[C@H](CO)NC(=O)[C@H](CC(C)C)NC(=O)CNC(=O)[C@H](Cc1c[nH]cn1)NC(=O)[C@@H]1CCCN1)C(=O)N[C@@H](Cc1ccc(O)cc1)C(=O)N1CCC[C@H]1C(=O)NCC(=O)N[C@@H](CCC(N)=O)C(=O)N1CCC[C@H]1C(=O)N[C@@H](CCSC)C(=O)N[C@@H](Cc1ccc(O)cc1)C(=O)O` [compound 142] (H-PHGLSIYPGQPMY-OH; N-terminus and C-terminus assumed), the “Inhibition at 50 μM” value was under 90% and the “Inhibition at 100 μM” value is reported as under 90%.

As to `CSCC[C@H](NC(=O)[C@@H]1CCCN1C(=O)[C@H](CCC(N)=O)NC(=O)CNC(=O)[C@@H]1CCCN1C(=O)[C@H](CCCCN)NC(=O)[C@H](CC(C)C)NC(=O)[C@H](CCC(=O)O)NC(=O)CNC(=O)[C@H](Cc1c[nH]c2ccccc12)NC(=O)[C@H](Cc1c[nH]cn1)NC(=O)[C@@H]1CCCN1)C(=O)N[C@@H](Cc1ccc(O)cc1)C(=O)O` [compound 143] (H-PHWGELKPGQPMY-OH; N-terminus and C-terminus assumed), the “Inhibition at 50 μM” value is given as under 90% and the “Inhibition at 100 μM” value is under 90%.

Consider `CSCC[C@H](NC(=O)[C@@H]1CCCN1C(=O)[C@H](CCC(N)=O)NC(=O)CNC(=O)[C@@H]1CCCN1C(=O)[C@H](Cc1ccccc1)NC(=O)[C@H](CC(C)C)NC(=O)[C@H](CCC(N)=O)NC(=O)[C@@H](NC(=O)[C@H](Cc1c[nH]c2ccccc12)NC(=O)[C@H](Cc1c[nH]cn1)NC(=O)[C@@H](N)CCCCN)C(C)C)C(=O)N[C@@H](Cc1ccc(O)cc1)C(=O)O` [compound 144] (H-KHWVQLFPGQPMY-OH; N-terminus and C-terminus assumed), for which the “Inhibition at 50 μM” value is under 90% and the “Inhibition at 100 μM” value was determined as 99.99%.

For the compound `CSCC[C@H](NC(=O)[C@@H]1CCCN1C(=O)[C@H](CCC(N)=O)NC(=O)CNC(=O)[C@H](CC(N)=O)NC(=O)[C@H](CCCCN)NC(=O)[C@H](Cc1ccccc1)NC(=O)[C@H](CC(N)=O)NC(=O)[C@H](CC(C)C)NC(=O)[C@H](Cc1c[nH]c2ccccc12)NC(=O)[C@H](CCC(=O)O)NC(=O)[C@@H](N)CCCCN)C(=O)N[C@@H](Cc1ccc(O)cc1)C(=O)O` [compound 145] (H-KEWLNFKNGQPMY-OH; N-terminus and C-terminus assumed), the “Inhibition at 50 μM” value is recorded as under 90% and the “Inhibition at 100 μM” value is on record as under 90%.

Consider `CSCC[C@H](NC(=O)[C@@H]1CCCN1C(=O)[C@H](CCC(N)=O)NC(=O)CNC(=O)[C@@H]1CCCN1C(=O)[C@H](Cc1c[nH]c2ccccc12)NC(=O)[C@H](Cc1ccccc1)NC(=O)[C@H](CCC(N)=O)NC(=O)CNC(=O)[C@@H](NC(=O)[C@H](CCCNC(=N)N)NC(=O)[C@@H](N)Cc1c[nH]c2ccccc12)[C@@H](C)O)C(=O)N[C@@H](Cc1ccc(O)cc1)C(=O)O` [compound 146] (H-WRTGQFWPGQPMY-OH; N-terminus and C-terminus assumed), for which the “Inhibition at 50 μM” value is under 90% and the “Inhibition at 100 μM” value is listed as under 90%.

For `CSCC[C@H](NC(=O)[C@@H]1CCCN1C(=O)[C@H](CCC(N)=O)NC(=O)CNC(=O)[C@H](CCCNC(=N)N)NC(=O)[C@H](CCCCN)NC(=O)[C@H](CC(C)C)NC(=O)[C@H](CCC(N)=O)NC(=O)CNC(=O)[C@H](CC(=O)O)NC(=O)[C@H](Cc1c[nH]cn1)NC(=O)[C@@H]1CCCN1)C(=O)N[C@@H](Cc1ccc(O)cc1)C(=O)O` [compound 147] (H-PHDGQLKRGQPMY-OH; N-terminus and C-terminus assumed), the “Inhibition at 50 μM” value is recorded as under 90% and the “Inhibition at 100 μM” value is under 90%.

In the case of `CSCC[C@H](NC(=O)[C@@H]1CCCN1C(=O)[C@H](CCC(=O)O)NC(=O)CNC(=O)[C@@H]1CCCN1C(=O)[C@H](CCCCN)NC(=O)[C@H](CC(C)C)NC(=O)[C@H](CC(N)=O)NC(=O)[C@H](CC(C)C)NC(=O)[C@H](Cc1c[nH]c2ccccc12)NC(=O)[C@H](CCCCN)NC(=O)[C@@H]1CCCN1)C(=O)N[C@@H](Cc1ccc(O)cc1)C(=O)O` [compound 148] (H-PKWLNLKPGEPMY-OH; N-terminus and C-terminus assumed), the “Inhibition at 50 μM” value was under 90% and the “Inhibition at 100 μM” value is under 90%.

As for `CSCC[C@H](NC(=O)[C@@H]1CCCN1C(=O)[C@H](CCC(N)=O)NC(=O)CNC(=O)[C@@H]1CCCN1C(=O)[C@H](CCSC)NC(=O)[C@H](CC(C)C)NC(=O)[C@H](CCCCN)NC(=O)[C@H](CC(C)C)NC(=O)[C@@H](NC(=O)[C@H](CCCNC(=N)N)NC(=O)[C@@H](N)Cc1c[nH]c2ccccc12)C(C)C)C(=O)N[C@@H](Cc1ccc(O)cc1)C(=O)O` [compound 149] (H-WRVLKLMPGQPMY-OH; N-terminus and C-terminus assumed), the “Inhibition at 50 μM” value was under 90% and the “Inhibition at 100 μM” value is listed as under 90%.

For `CC[C@H](C)[C@H](NC(=O)[C@H](CCC(N)=O)NC(=O)[C@H](CC(C)C)NC(=O)[C@H](Cc1ccccc1)NC(=O)[C@H](Cc1c[nH]cn1)NC(=O)[C@@H](N)Cc1c[nH]c2ccccc12)C(=O)N[C@@H](CCCCN)C(=O)N1CCC[C@H]1C(=O)NCC(=O)N[C@@H](CCC(=O)O)C(=O)N1CCC[C@H]1C(=O)N[C@@H](CCSC)C(=O)N[C@@H](Cc1ccc(O)cc1)C(=O)O` [compound 150] (H-WHFLQIKPGEPMY-OH; N-terminus and C-terminus assumed), the “Inhibition at 50 μM” value is reported as under 90% and the “Inhibition at 100 μM” value is on record as under 90%.

Take `CSCC[C@H](NC(=O)[C@@H]1CCCN1C(=O)[C@H](CCC(N)=O)NC(=O)CNC(=O)[C@@H]1CCCN1C(=O)[C@H](CCCCN)NC(=O)[C@H](CC(C)C)NC(=O)[C@H](CC(N)=O)NC(=O)[C@H](CC(C)C)NC(=O)[C@H](Cc1c[nH]c2ccccc12)NC(=O)[C@H](CCC(=O)O)NC(=O)[C@@H](N)CCCCN)C(=O)N[C@@H](Cc1ccc(O)cc1)C(=O)O` [compound 151] (H-KEWLNLKPGQPMY-OH; N-terminus and C-terminus assumed): the “Inhibition at 50 μM” value is on record as under 90% and the “Inhibition at 100 μM” value is given as under 90%.

Turning to `CC[C@H](C)[C@H](NC(=O)[C@H](CCC(N)=O)NC(=O)[C@H](CC(C)C)NC(=O)[C@H](Cc1c[nH]c2ccccc12)NC(=O)[C@H](CO)NC(=O)[C@@H](N)CCCCN)C(=O)N[C@@H](CCCCN)C(=O)N[C@@H](CC(N)=O)C(=O)NCC(=O)N[C@@H](CCC(N)=O)C(=O)N1CCC[C@H]1C(=O)N[C@@H](CCSC)C(=O)N[C@@H](Cc1ccc(O)cc1)C(=O)O` [compound 152] (H-KSWLQIKNGQPMY-OH; N-terminus and C-terminus assumed), the “Inhibition at 50 μM” value is listed as under 90% and the “Inhibition at 100 μM” value is under 90%.

Regarding `CC[C@H](C)[C@H](NC(=O)CNC(=O)[C@@H](N)CCCCN)C(=O)N[C@@H](CC(C)C)C(=O)N[C@H](C(=O)N[C@@H](CC(C)C)C(=O)N[C@@H](CCCCN)C(=O)N1CCC[C@H]1C(=O)NCC(=O)N[C@@H](CCC(N)=O)C(=O)N1CCC[C@H]1C(=O)N[C@@H](CCSC)C(=O)N[C@@H](Cc1ccc(O)cc1)C(=O)O)[C@@H](C)O` [compound 153] (H-KGILTLKPGQPMY-OH; N-terminus and C-terminus assumed), the “Inhibition at 50 μM” value is reported as under 90% and the “Inhibition at 100 μM” value is listed as under 90%.

For `CSCC[C@H](NC(=O)[C@@H]1CCCN1C(=O)[C@H](CO)NC(=O)CNC(=O)[C@@H]1CCCN1C(=O)[C@H](CCCCN)NC(=O)[C@H](CC(C)C)NC(=O)[C@H](C)NC(=O)[C@H](CC(C)C)NC(=O)[C@@H](NC(=O)[C@H](Cc1c[nH]cn1)NC(=O)[C@@H](N)CCCCN)C(C)C)C(=O)N[C@@H](Cc1ccc(O)cc1)C(=O)O` [compound 154] (H-KHVLALKPGSPMY-OH; N-terminus and C-terminus assumed), the “Inhibition at 50 μM” value is recorded as under 90% and the “Inhibition at 100 μM” value is under 90%.

Consider `CC[C@H](C)[C@H](NC(=O)[C@H](CCCCN)NC(=O)[C@@H](N)Cc1c[nH]c2ccccc12)C(=O)N[C@@H](CC(C)C)C(=O)N[C@H](C(=O)N[C@H](C(=O)N[C@@H](CCCCN)C(=O)N1CCC[C@H]1C(=O)NCC(=O)N[C@@H](CCC(N)=O)C(=O)N1CCC[C@H]1C(=O)N[C@@H](CCSC)C(=O)N[C@@H](Cc1ccc(O)cc1)C(=O)O)[C@@H](C)CC)[C@@H](C)O` [compound 155] (H-WKILTIKPGQPMY-OH; N-terminus and C-terminus assumed), for which the “Inhibition at 50 μM” value is given as under 90% and the “Inhibition at 100 μM” value is under 90%.
